Source: the supplement of paper PMC10307832

Key:
Experiment in all cases: relative viability (nuclei count vs DMSO), 5 days (fraction); higher = more cells survive
Elesclomol + Crizotinib = compound: CN(NC(=O)CC(=O)NN(C)C(=S)c1ccccc1)C(=S)c1ccccc1 [Elesclomol] + C[C@@H](Oc1cc(-c2cnn(C3CCNCC3)c2)cnc1N)c1c(Cl)ccc(F)c1Cl [Crizotinib] (partner 1 µM)
How it was run: (§1)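 Relative viability was taken as the ratio of nuclei in treated wells to nuclei in vehicle wells. Lung cancer cell lines in 1536-well plates received compounds by pin tool one day after seeding, either one drug alone or a fixed anchor-drug dose plus five library-drug doses (not always all listed) in √10 steps. Nuclei were counted on 4× images after 5 days of treatment, and values are medians of duplicate plates.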

Elesclomol + Phenformin = compound: CN(NC(=O)CC(=O)NN(C)C(=S)c1ccccc1)C(=S)c1ccccc1 [Elesclomol] + N=C(N)NC(=N)NCCc1ccccc1 [Phenformin] (partner 250 µM)
How it was run: as §1

Elesclomol + Alpelisib = compound: CN(NC(=O)CC(=O)NN(C)C(=S)c1ccccc1)C(=S)c1ccccc1 [Elesclomol] + Cc1nc(NC(=O)N2CCC[C@H]2C(N)=O)sc1-c1ccnc(C(C)(C)C(F)(F)F)c1 [Alpelisib] (partner 2 µM)
How it was run: as §1

Elesclomol + Foretinib = compound: CN(NC(=O)CC(=O)NN(C)C(=S)c1ccccc1)C(=S)c1ccccc1 [Elesclomol] + COc1cc2c(Oc3ccc(NC(=O)C4(C(=O)Nc5ccc(F)cc5)CC4)cc3F)ccnc2cc1OCCCN1CCOCC1 [Foretinib] (partner 0.25 µM)
How it was run: as §1

Elesclomol + OSI-027 = compound: CN(NC(=O)CC(=O)NN(C)C(=S)c1ccccc1)C(=S)c1ccccc1 [Elesclomol] + COc1cccc2cc(-c3nc([C@H]4CC[C@H](C(=O)O)CC4)n4ncnc(N)c34)[nH]c12 [OSI-027] (partner 0.5 µM)
How it was run: as §1

PC-14
relative viability (Elesclomol + Crizotinib; first compound 0.003162 µM): 0.918 | relative viability (Elesclomol + Crizotinib; first compound 0.01 µM): 0.526 | relative viability (Elesclomol + Crizotinib; first compound 0.03162 µM): 0.203 | relative viability (Elesclomol + Crizotinib; first compound 0.1 µM): 0.0548 | relative viability (Elesclomol + Phenformin; first compound 0.003162 µM): 0.404 | relative viability (Elesclomol + Phenformin; first compound 0.01 µM): 0.16 | relative viability (Elesclomol + Phenformin; first compound 0.03162 µM): 0.0586 | relative viability (Elesclomol + Phenformin; first compound 0.1 µM): 0.023 | relative viability (Elesclomol + Alpelisib; first compound 0.003162 µM): 0.913 | relative viability (Elesclomol + Alpelisib; first compound 0.01 µM): 0.558 | relative viability (Elesclomol + Alpelisib; first compound 0.03162 µM): 0.0506 | relative viability (Elesclomol + Alpelisib; first compound 0.1 µM): 0.0344 | relative viability (Elesclomol + Foretinib; first compound 0.003162 µM): 1.02 | relative viability (Elesclomol + Foretinib; first compound 0.01 µM): 0.827 | relative viability (Elesclomol + Foretinib; first compound 0.03162 µM): 0.484 | relative viability (Elesclomol + Foretinib; first compound 0.1 µM): 0.0715 | relative viability (Elesclomol + OSI-027; first compound 0.003162 µM): 0.19 | relative viability (Elesclomol + OSI-027; first compound 0.01 µM): 0.0399 | relative viability (Elesclomol + OSI-027; first compound 0.03162 µM): 0.0104 | relative viability (Elesclomol + OSI-027; first compound 0.1 µM): 0.0138

RERF-LC-KJ
relative viability (Elesclomol + Crizotinib; first compound 0.003162 µM): 0.832 | relative viability (Elesclomol + Crizotinib; first compound 0.01 µM): 0.473 | relative viability (Elesclomol + Crizotinib; first compound 0.03162 µM): 0.373 | relative viability (Elesclomol + Crizotinib; first compound 0.1 µM): 0.336 | relative viability (Elesclomol + Phenformin; first compound 0.003162 µM): 0.341 | relative viability (Elesclomol + Phenformin; first compound 0.01 µM): 0.347 | relative viability (Elesclomol + Phenformin; first compound 0.03162 µM): 0.267 | relative viability (Elesclomol + Phenformin; first compound 0.1 µM): 0.218 | relative viability (Elesclomol + Alpelisib; first compound 0.003162 µM): 0.702 | relative viability (Elesclomol + Alpelisib; first compound 0.01 µM): 0.352 | relative viability (Elesclomol + Alpelisib; first compound 0.03162 µM): 0.252 | relative viability (Elesclomol + Alpelisib; first compound 0.1 µM): 0.275 | relative viability (Elesclomol + Foretinib; first compound 0.003162 µM): 0.858 | relative viability (Elesclomol + Foretinib; first compound 0.01 µM): 0.812 | relative viability (Elesclomol + Foretinib; first compound 0.03162 µM): 0.522 | relative viability (Elesclomol + Foretinib; first compound 0.1 µM): 0.323 | relative viability (Elesclomol + OSI-027; first compound 0.003162 µM): 0.406 | relative viability (Elesclomol + OSI-027; first compound 0.01 µM): 0.372 | relative viability (Elesclomol + OSI-027; first compound 0.03162 µM): 0.242 | relative viability (Elesclomol + OSI-027; first compound 0.1 µM): 0.188

SK-LU-1
relative viability (Elesclomol + Crizotinib; first compound 0.003162 µM): 0.904 | relative viability (Elesclomol + Crizotinib; first compound 0.01 µM): 0.677 | relative viability (Elesclomol + Crizotinib; first compound 0.03162 µM): 0.362 | relative viability (Elesclomol + Crizotinib; first compound 0.1 µM): 0.141 | relative viability (Elesclomol + Phenformin; first compound 0.003162 µM): 0.643 | relative viability (Elesclomol + Phenformin; first compound 0.01 µM): 0.287 | relative viability (Elesclomol + Phenformin; first compound 0.03162 µM): 0.305 | relative viability (Elesclomol + Phenformin; first compound 0.1 µM): 0.161 | relative viability (Elesclomol + Alpelisib; first compound 0.003162 µM): 0.987 | relative viability (Elesclomol + Alpelisib; first compound 0.01 µM): 0.674 | relative viability (Elesclomol + Alpelisib; first compound 0.03162 µM): 0.294 | relative viability (Elesclomol + Alpelisib; first compound 0.1 µM): 0.1 | relative viability (Elesclomol + Foretinib; first compound 0.003162 µM): 0.803 | relative viability (Elesclomol + Foretinib; first compound 0.01 µM): 0.668 | relative viability (Elesclomol + Foretinib; first compound 0.03162 µM): 0.459 | relative viability (Elesclomol + Foretinib; first compound 0.1 µM): 0.193 | relative viability (Elesclomol + OSI-027; first compound 0.003162 µM): 0.319 | relative viability (Elesclomol + OSI-027; first compound 0.01 µM): 0.271 | relative viability (Elesclomol + OSI-027; first compound 0.03162 µM): 0.211 | relative viability (Elesclomol + OSI-027; first compound 0.1 µM): 0.0858

SK-MES-1
relative viability (Elesclomol + Crizotinib; first compound 0.003162 µM): 1.06 | relative viability (Elesclomol + Crizotinib; first compound 0.01 µM): 0.887 | relative viability (Elesclomol + Crizotinib; first compound 0.03162 µM): 0.964 | relative viability (Elesclomol + Crizotinib; first compound 0.1 µM): 0.625 | relative viability (Elesclomol + Phenformin; first compound 0.003162 µM): 0.644 | relative viability (Elesclomol + Phenformin; first compound 0.01 µM): 0.456 | relative viability (Elesclomol + Phenformin; first compound 0.03162 µM): 0.506 | relative viability (Elesclomol + Phenformin; first compound 0.1 µM): 0.421 | relative viability (Elesclomol + Alpelisib; first compound 0.003162 µM): 0.854 | relative viability (Elesclomol + Alpelisib; first compound 0.01 µM): 0.502 | relative viability (Elesclomol + Alpelisib; first compound 0.03162 µM): 0.679 | relative viability (Elesclomol + Alpelisib; first compound 0.1 µM): 0.279 | relative viability (Elesclomol + Foretinib; first compound 0.003162 µM): 0.87 | relative viability (Elesclomol + Foretinib; first compound 0.01 µM): 0.502 | relative viability (Elesclomol + Foretinib; first compound 0.03162 µM): 0.859 | relative viability (Elesclomol + Foretinib; first compound 0.1 µM): 0.854 | relative viability (Elesclomol + OSI-027; first compound 0.003162 µM): 0.695 | relative viability (Elesclomol + OSI-027; first compound 0.01 µM): 0.196 | relative viability (Elesclomol + OSI-027; first compound 0.03162 µM): 0.266 | relative viability (Elesclomol + OSI-027; first compound 0.1 µM): 0.395

SW 1573
relative viability (Elesclomol + Crizotinib; first compound 0.003162 µM): 0.806 | relative viability (Elesclomol + Crizotinib; first compound 0.01 µM): 0.344 | relative viability (Elesclomol + Crizotinib; first compound 0.03162 µM): 0.147 | relative viability (Elesclomol + Crizotinib; first compound 0.1 µM): 0.128 | relative viability (Elesclomol + Phenformin; first compound 0.003162 µM): 0.274 | relative viability (Elesclomol + Phenformin; first compound 0.01 µM): 0.114 | relative viability (Elesclomol + Phenformin; first compound 0.03162 µM): 0.159 | relative viability (Elesclomol + Phenformin; first compound 0.1 µM): 0.0405 | relative viability (Elesclomol + Alpelisib; first compound 0.003162 µM): 0.728 | relative viability (Elesclomol + Alpelisib; first compound 0.01 µM): 0.211 | relative viability (Elesclomol + Alpelisib; first compound 0.03162 µM): 0.143 | relative viability (Elesclomol + Alpelisib; first compound 0.1 µM): 0.0815 | relative viability (Elesclomol + Foretinib; first compound 0.003162 µM): 0.769 | relative viability (Elesclomol + Foretinib; first compound 0.01 µM): 0.65 | relative viability (Elesclomol + Foretinib; first compound 0.03162 µM): 0.165 | relative viability (Elesclomol + Foretinib; first compound 0.1 µM): 0.0891 | relative viability (Elesclomol + OSI-027; first compound 0.003162 µM): 0.167 | relative viability (Elesclomol + OSI-027; first compound 0.01 µM): 0.107 | relative viability (Elesclomol + OSI-027; first compound 0.03162 µM): 0.0847 | relative viability (Elesclomol + OSI-027; first compound 0.1 µM): 0.0105

UMC-11
relative viability (Elesclomol + Crizotinib; first compound 0.003162 µM): 0.649 | relative viability (Elesclomol + Crizotinib; first compound 0.01 µM): 0.445 | relative viability (Elesclomol + Crizotinib; first compound 0.03162 µM): 0.343 | relative viability (Elesclomol + Crizotinib; first compound 0.1 µM): 0.183 | relative viability (Elesclomol + Phenformin; first compound 0.003162 µM): 0.312 | relative viability (Elesclomol + Phenformin; first compound 0.01 µM): 0.343 | relative viability (Elesclomol + Phenformin; first compound 0.03162 µM): 0.328 | relative viability (Elesclomol + Phenformin; first compound 0.1 µM): 0.31 | relative viability (Elesclomol + Alpelisib; first compound 0.003162 µM): 0.949 | relative viability (Elesclomol + Alpelisib; first compound 0.01 µM): 0.931 | relative viability (Elesclomol + Alpelisib; first compound 0.03162 µM): 0.488 | relative viability (Elesclomol + Alpelisib; first compound 0.1 µM): 0.363 | relative viability (Elesclomol + Foretinib; first compound 0.003162 µM): 1.01 | relative viability (Elesclomol + Foretinib; first compound 0.01 µM): 0.91 | relative viability (Elesclomol + Foretinib; first compound 0.03162 µM): 0.789 | relative viability (Elesclomol + Foretinib; first compound 0.1 µM): 0.482 | relative viability (Elesclomol + OSI-027; first compound 0.003162 µM): 0.482 | relative viability (Elesclomol + OSI-027; first compound 0.01 µM): 0.428 | relative viability (Elesclomol + OSI-027; first compound 0.03162 µM): 0.396 | relative viability (Elesclomol + OSI-027; first compound 0.1 µM): 0.336
